System: disseminated L1210 murine leukemia
Experiment: Antileukemic activity against disseminated L1210 murine leukemia (in vivo, iv treatment)
Design: species or system mouse
Details: for LTS (Long Term Survivors (>60 days) at the end the experiment) / Tox (Number of toxic deaths/number of mice) / ILS% (Increase in life span): combination at the same doses and schedule; for ILS% (Increase in life span): L1210 cells 10^5/mouse iv on day 0
Source text: Combining doxorubicin and Ia at the same doses with the same schedule an increase of activity with ILS% values of 150 was observed, indicating a synergistic effect.
For these experiments Ia was solubilized in [Cremophor® /EtOH= 6.5:3.5]/[normal saline]=20/80 v/v, while standard etoposide pharmaceutical preparation and doxorubicin solubilized in water were used.

[1] = Table 2 experiment: Ia 1.5 mg/kg/day iv days +1,2, Doxorubicin 13 mg/kg/day iv day +3
[2] = doxorubicin alone 13 mg/kg day +3, Ia alone 1.5 mg/kg days +1,2
[3] = Table 1 experiment: Ia 1 mg/kg/day iv days +1,2, Etoposide 30 mg/kg/day iv day +3
[4] = etoposide alone 30 mg/kg day +3, Ia alone 1 mg/kg days +1,2

Row | Compound | LTS (Long Term Survivors (>60 days) at the end the experiment) [1] | Tox (Number of toxic deaths/number of mice) [1] | ILS% (Increase in life span) [1] [%] | toxicity (in words) [2] | LTS (Long Term Survivors (>60 days) at the end the experiment) [3] | Tox (Number of toxic deaths/number of mice) [3] | ILS% (Increase in life span) [3] [%] | toxicity (in words) [4]
1 | COc1cccc2c1C(=O)c1c(O)c3c(c(O)c1C2=O)C[C@@](O)(C(=O)CO)C[C@@H]3O[C@H]1C[C@H](N)[C@H](O)[C@H](C)O1 [Doxorubicin, doxorubicin] | 0/10 | 0/10 | 50 | without toxicity |  |  |  | 
2 | COc1cc([C@@H]2c3cc4c(cc3[C@@H](O[C@@H]3O[C@@H]5CO[C@@H](C)O[C@H]5[C@H](O)[C@H]3O)[C@H]3COC(=O)[C@H]23)OCO4)cc(OC)c1O [Etoposide, etoposide] |  |  |  |  | 0/10 | 0/10 | 100 | without toxicity
3 | CC(=O)[C@]1(O)Cc2c(O)c3c(c(O)c2[C@@H](O[C@H]2C[C@H](N4CC4)[C@H](OS(C)(=O)=O)[C@H](C)O2)C1)C(=O)c1ccccc1C3=O [Ia, 4-demethoxy-3'-deamino-3'-aziridinyl-4'-methansulfonyl daunorubicin] | 0/10 | 0/10 | 67 | without toxicity | 0/10 | 0/10 | 67 | without toxicity
